SMILES strings stand for the structures.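 Where inhibition never reached the appropriate level, the endpoint shown equals the highest concentration tested. Otherwise, values were interpolated linearly from a five-concentration, 48-hour dose response in 96-well plates. At the GI50, growth is halved. TGI: total growth inhibition.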 Bounds are passed on as bounds.

Test systems include MDA-MB-435; OVCAR-8 ovarian; RXF 393 renal; BT-549 breast; OVCAR-4 ovarian; NCI-H522 lung; TK-10 renal; 786-0 renal; RPMI-8226 leukemia; T-47D breast.
Common to all, as to assay: growth of human tumour cells (NCI), 48 h

As for `O=c1[nH]n(CCc2ccccc2CCl)c2ccc([N+](=O)[O-])cc12`, the TGI with MDA-MB-435 is more than 100 µM; in the assay with OVCAR-8 ovarian, more than 100 µM; in the assay on RXF 393 renal it was more than 100 µM; in the assay with BT-549 breast it was more than 100 µM; in the assay on OVCAR-4 ovarian, 92 µM; in the assay with NCI-H522 lung it was more than 100 µM. Also, the TGI in the assay with TK-10 renal, in the assay with 786-0 renal and in the assay with RPMI-8226 leukemia was more than 100 µM each time.
Take `CCC1=C(C[C@H]2NCCc3cc(OC)c(OC)cc32)C[C@H]2c3cc(OC)c(OC)cc3CCN2C1`: the TGI with OVCAR-8 ovarian was 0.137 µM; with RXF 393 renal, 0.0698 µM; in the assay with OVCAR-4 ovarian, 0.0717 µM; with NCI-H522 lung, 0.0688 µM; with 786-0 renal, 0.107 µM; in the assay with RPMI-8226 leukemia it was 0.229 µM.
For `Oc1ccc(Cl)cc1-c1cc(-c2ccccc2)nc(=S)[nH]1`, the TGI in the assay with MDA-MB-435 is more than 100 µM; with OVCAR-8 ovarian it was more than 100 µM; in the assay with RXF 393 renal, more than 100 µM; in the assay on OVCAR-4 ovarian it was more than 100 µM; with NCI-H522 lung it was more than 100 µM; with TK-10 renal, 68.7 µM. In addition, the TGI in the assay with T-47D breast is more than 100 µM; in the assay on 786-0 renal it was 64 µM; with RPMI-8226 leukemia, more than 100 µM.
For the compound `C=C(Br)C[N+]12CN3CN(CN(C3)C1)C2`, the TGI with MDA-MB-435, in the assay with OVCAR-8 ovarian, with RXF 393 renal, in the assay with OVCAR-4 ovarian, with NCI-H522 lung and in the assay with T-47D breast was more than 100 µM throughout. Besides, the TGI in the assay on 786-0 renal and with RPMI-8226 leukemia was more than 100 µM in each case.
As for `O=C(Nc1ccc(-n2cc(-c3ccncc3)c(-c3ccc(O)c(Cl)c3)n2)cc1)c1ccc(Cl)c(C(F)(F)F)c1`, the GI50 with MDA-MB-435 was 2.06 µM; in the assay on OVCAR-8 ovarian it was 1.84 µM; with RXF 393 renal it was 0.717 µM; in the assay with OVCAR-4 ovarian it was 2.52 µM; in the assay on NCI-H522 lung it was 1 µM; in the assay with TK-10 renal, 1.72 µM. For the same compound, the GI50 with T-47D breast was 3.43 µM; in the assay with RPMI-8226 leukemia, 0.65 µM. For the same compound, the TGI with MDA-MB-435 was 39.4 µM; with OVCAR-8 ovarian, 9.58 µM; with RXF 393 renal, 1.64 µM; in the assay with OVCAR-4 ovarian, more than 50 µM; in the assay with NCI-H522 lung, 4.88 µM; in the assay on TK-10 renal, 18.1 µM. In addition, the TGI was 37.2 µM in the assay with T-47D breast and 2.52 µM with RPMI-8226 leukemia.
As for `Cc1ccc(S(=O)(=O)OCCC2CN(C(=O)OCc3ccccc3)C(C)(C)O2)cc1` (configuration not stated), the TGI was 22.5 µM with MDA-MB-435; 29.4 µM in the assay with OVCAR-8 ovarian; more than 100 µM in the assay on RXF 393 renal; 5.97 µM in the assay with BT-549 breast; more than 100 µM with OVCAR-4 ovarian; 20.1 µM in the assay with NCI-H522 lung. In addition, the figures for the TGI in the assay on TK-10 renal, with 786-0 renal and in the assay on RPMI-8226 leukemia were more than 100 µM, more than 100 µM and 32.4 µM, respectively.
For `O=C1C=C(N2CCN(c3ncccn3)CC2)C(=O)c2c(O)ccc(O)c21`, the TGI with MDA-MB-435 was 24.3 µM; in the assay with OVCAR-8 ovarian, more than 100 µM; with BT-549 breast it was more than 100 µM; in the assay on OVCAR-4 ovarian, more than 100 µM; in the assay with NCI-H522 lung it was more than 100 µM; with TK-10 renal, more than 100 µM. Further, the TGI with T-47D breast and with 786-0 renal was more than 100 µM in each case.
`COc1cccc(C(C#N)NNC(=O)c2c(Cl)c(Cl)c(Cl)c(Cl)c2-c2nc3ccc(C(=O)c4ccccc4)cc3[nH]2)c1O` (configuration not stated): the TGI is more than 100 µM in the assay with OVCAR-8 ovarian; 9.03 µM in the assay on RXF 393 renal; more than 100 µM in the assay on BT-549 breast; more than 100 µM in the assay with OVCAR-4 ovarian; more than 100 µM in the assay on TK-10 renal; more than 100 µM with T-47D breast. Also, the TGI in the assay with 786-0 renal and in the assay on RPMI-8226 leukemia was more than 100 µM throughout.
For `Cc1nc2ccc(Br)cc2c(=O)n1-c1ccc(N)cc1`, the TGI is more than 100 µM in the assay with MDA-MB-435; more than 100 µM in the assay with OVCAR-8 ovarian; 81.8 µM with RXF 393 renal; more than 100 µM with BT-549 breast; more than 100 µM in the assay with OVCAR-4 ovarian; more than 100 µM with TK-10 renal. The compound further yielded a TGI in the assay on 786-0 renal of more than 100 µM.
Turning to `O=C1c2ccncc2C(=O)c2c(O)ccc(O)c21`, the TGI in the assay with OVCAR-8 ovarian is 21.4 µM; with RXF 393 renal it was 16.8 µM; in the assay on OVCAR-4 ovarian, 23.6 µM; in the assay with TK-10 renal, 42.3 µM; in the assay with 786-0 renal, 19.2 µM; in the assay on RPMI-8226 leukemia, 30.4 µM.
In the case of `COc1cc2nc(N3CCC[C@H](NC4=CC(=O)c5ccccc5C4=O)C3)nc(N)c2cc1OC`, the GI50 with MDA-MB-435 was 2.05 µM; in the assay with OVCAR-8 ovarian, 2.06 µM; in the assay on OVCAR-4 ovarian, 1.61 µM; with NCI-H522 lung, 1.83 µM; in the assay with TK-10 renal, 2.41 µM; in the assay with T-47D breast, 1.9 µM. In addition, the GI50 in the assay on RPMI-8226 leukemia is 1.98 µM. For the same compound, the TGI stood at 4.03 µM in the assay on MDA-MB-435; 4.28 µM in the assay with OVCAR-8 ovarian; 3.19 µM in the assay on OVCAR-4 ovarian; 3.58 µM with NCI-H522 lung; 4.12 µM in the assay on TK-10 renal; 3.63 µM in the assay on T-47D breast. Also, the TGI in the assay on RPMI-8226 leukemia stood at 4.84 µM.
In the case of `COC(=O)c1c2c(cc3c1CC1(Cc4cc5c(c(C)c4C1)CCC5)C3)CCC2` (configuration not stated), the TGI in the assay on MDA-MB-435, with OVCAR-8 ovarian, with RXF 393 renal, with OVCAR-4 ovarian, in the assay on NCI-H522 lung and with TK-10 renal was more than 100 µM in each case. The TGI with T-47D breast, with 786-0 renal and in the assay on RPMI-8226 leukemia was more than 100 µM each time.
In the case of `Cc1cc(C)c2c(c1)C/C(=C\c1cccc(C)c1C(=O)O)C2=O`, the TGI in the assay with OVCAR-8 ovarian, in the assay with RXF 393 renal, in the assay on BT-549 breast, in the assay with OVCAR-4 ovarian, in the assay on NCI-H522 lung and in the assay with TK-10 renal was more than 100 µM in each case. The TGI with T-47D breast, in the assay with 786-0 renal and in the assay on RPMI-8226 leukemia was more than 100 µM each time.
In the case of `CC/C=C/c1cc2c(cc1O)CCC1C2CC[C@@]2(C)C1CC[C@@H]2O` (some centres not stated), the TGI in the assay on MDA-MB-435 is 1.12 µM; in the assay with OVCAR-8 ovarian it was 20.3 µM; with RXF 393 renal, 7.92 µM; with OVCAR-4 ovarian it was 35.3 µM; in the assay with NCI-H522 lung, 14.1 µM; with TK-10 renal, 4.72 µM. For the same compound, the TGI in the assay on T-47D breast came to 15 µM; in the assay on 786-0 renal, 13.8 µM; with RPMI-8226 leukemia, 6.46 µM.

For the origin of these results see PubChem BioAssay (NCI).
